Assay results reported in PubChem BioAssay (NCI).
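Step 1: Grow cells in 96-well plates. Step 2: Expose to compound for 48 hours at 5 concentrations. Step 3: Interpolate endpoints linearly; if unreached, use highest concentration. The concentration for 50% growth inhibition is given as GI50. TGI denotes the concentration required for complete inhibition of growth.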 Where a SMILES comes first, the peptide text is derived from it. Peptide text beside a SMILES is read from it. [ ]: non-standard residue; d: D form. The star is where a group is joined. * marks the point of attachment. Phe(4-NO2) = N[CH](Cc1ccc([N+](=O)[O-])cc1)C(=O)O; Palmitoyl = CCCCCCCCCCCCCCCC(=O)*; Boc = CC(C)(C)OC(=O)*; OtBu = CC(C)(C)O*

Columns and labels:
Assay in all cases: growth of human tumour cells (NCI), 48 h
786-0 renal = test system: 786-0 renal
A498 renal = test system: A498 renal
KM12 colon = test system: KM12 colon
M14 melanoma = test system: M14 melanoma
OVCAR-5 ovarian = test system: OVCAR-5 ovarian
PC-3 prostate = test system: PC-3 prostate
SF-268 CNS = test system: SF-268 CNS
SF-295 CNS = test system: SF-295 CNS
SNB-19 CNS = test system: SNB-19 CNS

COc1ccc([C@@]23CCC(=O)C[C@@H]2N(C)CC3)cc1OC
TGI (786-0 renal): > 100 µM | TGI (A498 renal): > 100 µM | TGI (KM12 colon): > 100 µM | TGI (M14 melanoma): > 100 µM | TGI (OVCAR-5 ovarian): > 100 µM | TGI (PC-3 prostate): > 100 µM | TGI (SF-268 CNS): > 100 µM | TGI (SF-295 CNS): > 100 µM | TGI (SNB-19 CNS): > 100 µM

Cc1cc(S(=O)(=O)NC(=NCC(=O)NN)NN)c(S)cc1Cl
TGI (786-0 renal): > 10 µM | TGI (A498 renal): > 10 µM | TGI (KM12 colon): > 10 µM | TGI (M14 melanoma): > 10 µM | TGI (OVCAR-5 ovarian): > 10 µM | TGI (PC-3 prostate): > 10 µM | TGI (SF-268 CNS): > 10 µM | TGI (SF-295 CNS): > 10 µM | TGI (SNB-19 CNS): > 10 µM

COC1(OC)N=C(N)C2(C#N)/C(=N/N(C)C)CC(C)C12C#N (centres undefined)
TGI (786-0 renal): > 100 µM | TGI (A498 renal): > 100 µM | TGI (KM12 colon): > 100 µM | TGI (M14 melanoma): > 100 µM | TGI (OVCAR-5 ovarian): > 100 µM | TGI (PC-3 prostate): > 100 µM | TGI (SF-268 CNS): > 100 µM | TGI (SF-295 CNS): > 100 µM | TGI (SNB-19 CNS): > 100 µM

O=C(NCCCCl)c1c(O)c2ccccc2[nH]c1=O
TGI (786-0 renal): > 100 µM | TGI (A498 renal): > 100 µM | TGI (KM12 colon): > 100 µM | TGI (M14 melanoma): > 100 µM | TGI (OVCAR-5 ovarian): > 100 µM | TGI (PC-3 prostate): > 100 µM | TGI (SF-268 CNS): > 100 µM | TGI (SF-295 CNS): > 82.5 µM | TGI (SNB-19 CNS): > 100 µM

CSCCC(NC(=O)C(CC(C)C)NC(=O)CNC(=O)OC(C)(C)C)C(=O)N(C)C (stereo not drawn) (Boc-Gly-Leu-Met-NMe2; configuration not given here)
TGI (786-0 renal): > 100 µM | TGI (A498 renal): > 100 µM | TGI (KM12 colon): > 100 µM | TGI (M14 melanoma): > 100 µM | TGI (OVCAR-5 ovarian): > 100 µM | TGI (PC-3 prostate): > 100 µM | TGI (SF-268 CNS): > 100 µM | TGI (SF-295 CNS): > 100 µM | TGI (SNB-19 CNS): > 100 µM

COC1=CC2(C=CC1=O)CCN=c1c(O)c3c(c(O)c12)=NC=N3 (centres undefined)
TGI (786-0 renal): > 100 µM | TGI (A498 renal): > 100 µM | TGI (KM12 colon): > 100 µM | TGI (M14 melanoma): > 100 µM | TGI (OVCAR-5 ovarian): > 100 µM | TGI (PC-3 prostate): > 100 µM | TGI (SF-268 CNS): > 100 µM | TGI (SF-295 CNS): > 100 µM | TGI (SNB-19 CNS): > 100 µM

CC(=O)Nc1ncc2c(n1)-c1ccccc1OC2
TGI (786-0 renal): > 100 µM | TGI (A498 renal): > 100 µM | TGI (KM12 colon): > 100 µM | TGI (M14 melanoma): > 100 µM | TGI (OVCAR-5 ovarian): > 100 µM | TGI (PC-3 prostate): > 100 µM | TGI (SF-268 CNS): > 100 µM | TGI (SF-295 CNS): > 100 µM | TGI (SNB-19 CNS): > 100 µM

COC(=O)C1(Cc2ccccc2)Cc2ccccc2C1=O (centres undefined)
TGI (786-0 renal): > 100 µM | TGI (KM12 colon): > 100 µM | TGI (M14 melanoma): > 100 µM | TGI (OVCAR-5 ovarian): > 100 µM | TGI (PC-3 prostate): > 100 µM | TGI (SF-268 CNS): > 100 µM | TGI (SF-295 CNS): > 100 µM

Cc1nn(C(=O)c2ccccc2O)c2c1C(c1ccc(O)cc1)SC(N)=N2 (centres undefined)
TGI (786-0 renal): > 10 µM | TGI (A498 renal): > 10 µM | TGI (KM12 colon): > 10 µM | TGI (M14 melanoma): > 10 µM | TGI (OVCAR-5 ovarian): > 10 µM | TGI (PC-3 prostate): > 10 µM | TGI (SF-268 CNS): > 10 µM | TGI (SF-295 CNS): > 10 µM | TGI (SNB-19 CNS): > 10 µM

COc1cc(O)c2c(c1)C(O)C(O)CC1OC1C(=O)/C=C/CC(C)OC2=O (centres undefined)
TGI (786-0 renal): 13.8 µM | TGI (A498 renal): 27.3 µM | TGI (KM12 colon): 27.1 µM | TGI (M14 melanoma): 11.8 µM | TGI (OVCAR-5 ovarian): 31 µM | TGI (PC-3 prostate): 24.9 µM | TGI (SF-268 CNS): 46.3 µM | TGI (SF-295 CNS): 46.6 µM | TGI (SNB-19 CNS): 58.2 µM

COc1ccc(-c2c(C(C)=O)c(C)n(C3OC(CO)C(O)C(O)C3O)c(=S)c2C#N)cc1 (centres undefined)
TGI (KM12 colon): > 100 µM | TGI (M14 melanoma): > 100 µM | TGI (OVCAR-5 ovarian): > 100 µM | TGI (PC-3 prostate): > 100 µM | TGI (SF-268 CNS): > 100 µM | TGI (SF-295 CNS): > 100 µM | TGI (SNB-19 CNS): 33.6 µM

COc1ccc(S(=O)(=O)Nc2ccc(-c3csc(N4C(=O)/C(=C/C=C\c5ccccc5)N=C4c4ccccc4)n3)cc2)cc1Cl
TGI (786-0 renal): > 100 µM | TGI (A498 renal): 73.1 µM | TGI (KM12 colon): 97.1 µM | TGI (M14 melanoma): 83.6 µM | TGI (OVCAR-5 ovarian): > 100 µM | TGI (PC-3 prostate): > 100 µM | TGI (SF-268 CNS): 56.3 µM | TGI (SF-295 CNS): > 100 µM | TGI (SNB-19 CNS): > 100 µM

COC(=O)CNC(=O)/C=C/[C@H](O[Si](C)(C)C(C)(C)C)[C@H](/C=C/C(=O)NCC(=O)OC)O[Si](C)(C)C(C)(C)C
TGI (786-0 renal): > 25 µM | TGI (A498 renal): > 25 µM | TGI (KM12 colon): > 25 µM | TGI (OVCAR-5 ovarian): > 25 µM | TGI (PC-3 prostate): > 25 µM | TGI (SF-268 CNS): > 25 µM | TGI (SF-295 CNS): > 25 µM | TGI (SNB-19 CNS): > 25 µM

O=C(O)c1ccc(Nc2cnc3ccc(C(F)(F)F)cc3n2)cc1
TGI (786-0 renal): > 100 µM | TGI (A498 renal): 42.9 µM | TGI (KM12 colon): 31.4 µM | TGI (M14 melanoma): > 100 µM | TGI (OVCAR-5 ovarian): > 100 µM | TGI (PC-3 prostate): 42.6 µM | TGI (SF-268 CNS): > 100 µM | TGI (SF-295 CNS): 45.3 µM | TGI (SNB-19 CNS): 33.7 µM

CC(=O)OCC1OC(n2c3c(c(-c4ccco4)c(C#N)c2=S)CCCC3)C(OC(C)=O)C(OC(C)=O)C1OC(C)=O (centres undefined)
TGI (786-0 renal): 52.6 µM | TGI (A498 renal): 22.1 µM | TGI (KM12 colon): > 31.6 µM | TGI (M14 melanoma): > 100 µM | TGI (OVCAR-5 ovarian): > 31.6 µM | TGI (SF-268 CNS): > 31.6 µM | TGI (SF-295 CNS): 21.5 µM | TGI (SNB-19 CNS): 26.2 µM

c1csc(-c2ccc(-c3ccc(-c4cccs4)s3)s2)c1
TGI (786-0 renal): > 100 µM | TGI (A498 renal): > 100 µM | TGI (KM12 colon): > 100 µM | TGI (M14 melanoma): > 100 µM | TGI (OVCAR-5 ovarian): > 100 µM | TGI (PC-3 prostate): > 100 µM | TGI (SF-268 CNS): > 100 µM | TGI (SF-295 CNS): > 100 µM | TGI (SNB-19 CNS): > 100 µM

N#Cc1nnc2c3c(-c4ccc(Cl)cc4)c(C#N)c(=O)[nH]c3nn2c1N
TGI (786-0 renal): 18.2 µM | TGI (A498 renal): 10.9 µM | TGI (KM12 colon): 28.5 µM | TGI (M14 melanoma): 21.7 µM | TGI (OVCAR-5 ovarian): 65.4 µM | TGI (PC-3 prostate): 24.5 µM | TGI (SF-268 CNS): 12.6 µM | TGI (SF-295 CNS): 23.9 µM | TGI (SNB-19 CNS): 19.5 µM

O=C1N2CCc3c([nH]c4ccccc34)C23CC2CCCC12S3 (centres undefined)
TGI (786-0 renal): > 50 µM | TGI (A498 renal): > 50 µM | TGI (KM12 colon): > 50 µM | TGI (M14 melanoma): > 50 µM | TGI (OVCAR-5 ovarian): > 50 µM | TGI (PC-3 prostate): > 50 µM | TGI (SF-268 CNS): > 50 µM | TGI (SF-295 CNS): > 50 µM | TGI (SNB-19 CNS): > 50 µM

COC(=O)C(Cc1ccccc1)NC(=O)CCCNC(=O)OCc1ccccc1 (centres undefined)
TGI (786-0 renal): > 100 µM | TGI (KM12 colon): > 100 µM | TGI (M14 melanoma): 32.5 µM | TGI (OVCAR-5 ovarian): > 100 µM | TGI (PC-3 prostate): > 100 µM | TGI (SF-268 CNS): > 100 µM | TGI (SF-295 CNS): > 100 µM | TGI (SNB-19 CNS): > 100 µM

COC(=O)C(Cc1ccc([N+](=O)[O-])cc1)NC(=O)C(CC(=O)OC(C)(C)C)NC(=O)OC(C)(C)C (centres undefined) (Boc-Asp(OtBu)-[Phe(4-NO2)]-OMe; configuration not given here)
TGI (786-0 renal): > 100 µM | TGI (A498 renal): > 100 µM | TGI (KM12 colon): > 100 µM | TGI (M14 melanoma): > 100 µM | TGI (OVCAR-5 ovarian): > 100 µM | TGI (PC-3 prostate): > 100 µM | TGI (SF-268 CNS): > 100 µM | TGI (SF-295 CNS): > 100 µM | TGI (SNB-19 CNS): > 100 µM

COCCCN1C(=O)C2c3[nH]c4ccccc4c3C3CCC(C(C)(C)C)CC3C2C1=O (centres undefined)
TGI (786-0 renal): 63.1 µM | TGI (KM12 colon): 55.5 µM | TGI (M14 melanoma): 39 µM | TGI (PC-3 prostate): 50.8 µM | TGI (SF-268 CNS): > 100 µM | TGI (SF-295 CNS): 56.3 µM | TGI (SNB-19 CNS): > 100 µM

CCCCCCCCCCCCCCCC(=O)NC(CCCCN)C(=O)NCC(=O)NC(Cc1ccccc1)C(=O)N1CCCC1C(=O)NC(CO)C(=O)NC(Cc1ccc(O)cc1)C(=O)NC(CCCCN)C(=O)NC(CC(C)C)C(=O)NC(CCCN=C(N)N)C(=O)N1CCCC1C(=O)NCC(N)=O (centres undefined) (Palmitoyl-KGFPSYKLRPG-NH2; configuration not given here)
GI50 (A498 renal): 34.2 µM | TGI (A498 renal): > 100 µM | GI50 (KM12 colon): 19.4 µM | TGI (KM12 colon): 46.6 µM | GI50 (M14 melanoma): 18.4 µM | TGI (M14 melanoma): 37.9 µM | GI50 (OVCAR-5 ovarian): 20.7 µM | TGI (OVCAR-5 ovarian): 48.1 µM | GI50 (SF-268 CNS): 21.7 µM | TGI (SF-268 CNS): 46.1 µM | GI50 (SF-295 CNS): 27.1 µM | TGI (SF-295 CNS): 72.6 µM | GI50 (SNB-19 CNS): 26.6 µM | TGI (SNB-19 CNS): 54.9 µM
